In article PMC10819809 (Microorganisms, 2024):
≈ marks a conversion by molar mass, not a printed value. Square brackets hold non-standard residues; d marks the D form. Peptide text beside a SMILES is read from it.

Test system: multi-drug resistant (MDR) strain (MDR-TB, clinical isolate)
Details: microdilution broth, 96-well, 2 × 10^5 CFU/mL, 37 °C 14 days, resazurin 48 h; conducted twice with three technical replicates each

## CC[C@@H](C)[C@@H](NC(=O)[C@@H](CCCCN)NC(=O)[C@H](N)Cc1c[nH]c2ccccc12)C(=O)N[C@@H](C(=O)N[C@H](Cc1ccccc1)C(=O)N[C@H](Cc1c[nH]c2ccccc12)C(=O)N[C@H](Cc1c[nH]c2ccccc12)C(=O)N[C@H](CCCNC(=N)N)C(=O)N[C@H](CCCNC(=N)N)C(N)=O)C(C)C [peptide 14D] (H-[dW][dK][dI][dV][dF][dW][dW][dR][dR]-NH2)
  MIC in µg/mL, MDR-TB: >50 µg/mL

## CC[C@@H](C)[C@@H](NC(=O)[C@@H](CCCCN)NC(=O)[C@H](N)Cc1c[nH]c2ccccc12)C(=O)N[C@H](CO)C(=O)N[C@H](Cc1ccccc1)C(=O)N[C@H](Cc1c[nH]c2ccccc12)C(=O)N[C@H](Cc1c[nH]c2ccccc12)C(=O)N[C@H](CCCNC(=N)N)C(=O)N[C@H](CCCNC(=N)N)C(N)=O [wkisfwwrr] (H-[dW][dK][dI][dS][dF][dW][dW][dR][dR]-NH2; N-terminus assumed)
  MIC in µg/mL, MDR-TB: 20 µg/mL (≈ 14.7 µM)

## CC[C@@H](C)[C@@H](NC(=O)[C@@H](CCCCN)NC(=O)[C@H](N)Cc1c[nH]c2ccccc12)C(=O)N[C@@H](C(=O)N[C@H](Cc1ccccc1)C(=O)NCC(=O)N[C@H](Cc1c[nH]c2ccccc12)C(=O)N[C@H](CCCNC(=N)N)C(=O)N[C@H](CCCNC(=N)N)C(N)=O)C(C)C [wkivfGwrr] (H-[dW][dK][dI][dV][dF]G[dW][dR][dR]-NH2; N-terminus assumed)
  MIC in µg/mL, MDR-TB: 20 µg/mL (≈ 16 µM)

## CC[C@@H](C)[C@@H](NC(=O)[C@@H](CCCCN)NC(=O)[C@H](N)Cc1c[nH]c2ccccc12)C(=O)N[C@@H](C(=O)N[C@H](Cc1ccccc1)C(=O)N[C@H](CC(=O)O)C(=O)N[C@H](Cc1c[nH]c2ccccc12)C(=O)N[C@H](CCCNC(=N)N)C(=O)N[C@H](CCCNC(=N)N)C(N)=O)C(C)C [wkivfdwrr] (H-[dW][dK][dI][dV][dF][dD][dW][dR][dR]-NH2)
  MIC in µg/mL, MDR-TB: 20 µg/mL (≈ 15.3 µM)

## CC[C@@H](C)[C@@H](NC(=O)[C@@H](CCCCN)NC(=O)[C@H](N)Cc1c[nH]c2ccccc12)C(=O)N[C@@H](C(=O)N[C@H](Cc1ccccc1)C(=O)N[C@H](CC(N)=O)C(=O)N[C@H](Cc1c[nH]c2ccccc12)C(=O)N[C@H](CCCNC(=N)N)C(=O)N[C@H](CCCNC(=N)N)C(N)=O)C(C)C [wkivfnwrr] (H-[dW][dK][dI][dV][dF][dN][dW][dR][dR]-NH2; N-terminus assumed)
  MIC in µg/mL, MDR-TB: 20 µg/mL (≈ 15.3 µM)
